This note sets out measurements from patent US12540173B2, “Methods of treating cancer by targeting ZSCAN4 activity in cancer stem cells” (University of Maryland, Baltimore, priority 2019, dated 2026).

Like-named read-outs stand apart in the source and are kept apart here.

In data set [1] the test system is OCT3/4, SOX2, KLF4 and NANOG. Put plainly: qPCR of pluripotent stem cell factors after ZSCAN4 knockdown. It is filed as cell-based, human. Particulars: vs NTC-shRNA. The method, then:
RNA extraction and Quantitative Reverse Transcriptase Polymerase Chain Reaction (qRT-PCR). One microgram of total RNA, isolated with Trizol, was reverse transcribed by Superscript III (Invitrogen) following the manufacturer's protocol. For qPCR, 10 ng cDNA was used per well in triplicate using SYBR green reaction mix (Roche) following the manufacturer's instructions with corresponding primers (Table 1). Reactions were run on the LightCycler 480 system (Roche). Fold induction was calculated by the delta-delta Ct method.
ZSCAN4 shRNAs were tested (19-mer sense, a hairpin loop, and 19-mer anti-sense oligos): shRNA1 (SEQ ID NO:3): 5′-[…] G-3′, shRNA2 (SEQ ID NO:4): 5′-[…] TG-3, shRNA3 (SEQ ID NO:5): 5′-[…] T-3 and two were cloned into the HuSH shRNA Plasmid pRFP-C-RS (Origene). Vectors were stably transfected into Tu167 or 012SCC cells by Effectene (QIAGEN) according to the manufacturer's protocol. As controls, isogenic cell lines were also generated expressing a non-targeting control shRNA (NTC-shRNA) or an Empty vector (same vector without an shRNA cassette). Cell lines were selected with 1 μg/ml Puromycin (ThermoFisher Scientific). Knockdown was confirmed by immunostaining and by qPCR.
Next, we used two of the shRNA sequences (shRNA1 and shRNA2) to generate stable knockdown cell lines (in Tu167 and 012SCC cells). Isogenic cells for each cell line with NTC-shRNA, or empty vector were used as controls. […] Our results further indicate a decrease in the CSC markers BMI1 and EZH2 (FIG. 5C).
For orientation: In qPCR the cycle at which signal appears reflects the starting amount.

Data set [2] has as its system ZSCAN4 depleted Tu167 cells. Particulars: increasing doses, ZSCAN4 depleted Tu167 cells compared to isogenic NTC shRNA cells, MTT. The source says: FIG. 14. […] All data shown as mean±S.E.M. observed in triplicate in at least three independent experiments. Asterisks indicate: *p<0.05, **p<0.01, ***p<0.001.
Another hallmark of CSCs is multi-drug resistance, a major factor contributing to cancer recurrence. Therefore, we examined the role of ZSCAN4 in response to genotoxic drugs. To define the effect of ZSCAN4 on drug resistance, we measured cell viability after increasing doses of the DNA damaging drugs in ZSCAN4 depleted and control Tu167 cells.

The next data set relates to tet-ZSCAN4 cells. Put plainly: Dox-regulated ZSCAN4 induction and clearance, immunoblot. It is filed as cell-based, human. Here is the method:
FIG. 9. A, An illustration of the tet-ZSCAN4 expression vector. B, Image of tet-ZSCAN4 (Tu167) cells showing expression of GFP. C, Immunoblot analyses indicate ZSCAN4 is tightly regulated by Dox and localizes to the nucleus; Controls: LDH (cytosol), Lamin-B (nucleus). D, Doxycycline addition to the culture medium (Dox+) induces ZSCAN4 within 6 hours.
Immunoblot Assays. Cytosolic proteins were extracted by Cytoskeleton buffer (10 mM PIPES, 300 mM sucrose, 100 mM NaCl, 3 mM MgCl2, 1 mM EGTA and 0.5% Triton X100), and nucleoplasm fraction was isolated. Next, pellets were lysed in urea solution (8 M Urea in 0.01 Tris pH 8+0.1M NaH2PO4) and sonicated. Samples were electrophoresed in polyacrylamide gels. PVDF membranes were blocked with 5% nonfat milk or Superblock (Thermo Fisher Scientific) for 1 hour, then incubated overnight at 4° C. with the indicated primary antibodies in blocking solution (Table 2). Membranes were washed and incubated with secondary antibodies (1:5000) for 1 hour. Secondary antibodies were visualized by ECL Chemiluminescence (ThermoFisher Scientific). […]

With “shRNA1: ZSCAN4 shRNA, SEQ ID NO:3: 5′-GAGAACGGTCCTAGGCCTGTCAAGAGGAGAACGGTCCTAGGCCTG-3′”, the “expression of OCT3/4, SOX2, KLF4 and NANOG” value in data set [1] (012SCC stable knockdown cells) is listed as “significant downregulation”; in data set [1] (012SCC stable knockdown cells, listed as shRNA 1), “decreased expression”; in data set [1] (Tu167 stable knockdown cells), “significant downregulation”; in data set [1] (Tu167 stable knockdown cells, listed as shRNA 1), “decreased expression”.

With Bleomycin [BLM], the cell viability result is listed as “dramatically reduced cell viability” in data set [2] and “hypersensitivity” in data set [2] (listed as Bleomycin).

On to `N.N.[Cl][Pt][Cl]` [CPT, Cisplatin], for which the cell viability entry in data set [2] is “significantly decreased cell viability”; in data set [2] (listed as Cisplatin), “hypersensitivity”.

For “shRNA2: ZSCAN4 shRNA, SEQ ID NO:4: 5′-GATATCAGACCTACGGGTGTCAAGAGGATATCAGACCTACGGGTG-3′”, the “expression of OCT3/4, SOX2, KLF4 and NANOG” value was “significant downregulation” in data set [1] (012SCC stable knockdown cells); “decreased expression” in data set [1] (012SCC stable knockdown cells, listed as shRNA 2); “significant downregulation” in data set [1] (Tu167 stable knockdown cells); “decreased expression” in data set [1] (Tu167 stable knockdown cells, listed as shRNA 2).

For the molecule `C[C@H]1c2cccc(O)c2C(=O)C2=C(O)[C@]3(O)C(=O)C(C(N)=O)=C(O)[C@@H](N(C)C)[C@@H]3[C@@H](O)[C@@H]21` [Dox, Doxycycline], the “time until ZSCAN4 is detectable after addition of Dox to the medium” value with tet-ZSCAN4 cells was ≤ 6 h.
